The source made the active and inactive calls. The calls are words filed in the database; no cut-off is given here.
Experiments:
[1] = Cell cycle arrest in human ALL5 cells assessed as accumulation in S phase at 5 times of antiproliferative IC50 incubated for 24 hrs by propidium iodide based flow cytometry (reference value: […]); type: functional
[2] = Antiproliferative activity against human ALL5 cells assessed as reduction in cell viability incubated for 120 hrs by MTT assay; type: functional, cell-based; details: ALL5, 120 h
[3] = Cell cycle arrest in human ALL5 cells assessed as accumulation in G1 phase at 5 times of antiproliferative IC50 incubated for 24 hrs by propidium iodide based flow cytometry (reference value: 68.1 %); type: functional
MCF7 [4] = experiment: Cell cycle arrest in human MCF7 cells assessed as accumulation in G1 phase at 5 times of antiproliferative IC50 incubated for 24 hrs by propidium iodide based flow cytometry (reference value: 49.9 %); type: functional
[5] = Selectivity index, ratio of IC50 of mouse BALB/3T3 cells to IC50 of human LoVo/DX cells; type: toxicity; details: BALB/3T3 cells versus LoVo/DX cells, read-out: Ratio IC50
[6] = Selectivity index, ratio of IC50 of mouse BALB/3T3 cells to IC50 of human ALL5 cells
[7] = Cell cycle arrest in human ALL5 cells assessed as accumulation in subG1 phase at 5 times of antiproliferative IC50 incubated for 24 hrs by propidium iodide based flow cytometry (reference value: 10.5 %); type: functional
[8] = Selectivity index, ratio of IC50 of mouse BALB/3T3 cells to IC50 of human LoVo cells; type: toxicity; details: BALB/3T3 cells versus LoVo cells, read-out: Ratio IC50
MCF7 [9] = experiment: Cell cycle arrest in human MCF7 cells assessed as accumulation in G2 phase at 5 times of antiproliferative IC50 incubated for 48 hrs by propidium iodide based flow cytometry (reference value: 16 %); type: functional
Homo sapiens [10] = species on record: Homo sapiens; experiment: Induction of apoptosis in human ALL5 cells assessed as reduction in 116 kDa PARP expression at 26.5 uM incubated for 24 and 48 hrs by immunoblot analysis; type: functional, cell-based
[11] = Cell cycle arrest in human ALL5 cells assessed as accumulation in G2 phase at 5 times of antiproliferative IC50 incubated for 24 hrs by propidium iodide based flow cytometry (reference value: 10.6 %); type: functional
Homo sapiens [12] = species on record: Homo sapiens; experiment: Induction of cell cycle arrest in human ALL5 cells assessed as increase in 4 N DNA at 5 times of antiproliferative IC50 incubated for 48 hrs by propidium iodide based flow cytometry; type: functional
A549 = experiment: Antiproliferative activity against human A549 cells assessed as reduction in cell viability incubated for 120 hrs by MTT assay; type: functional, cell-based; details: A549, 120 h
Homo sapiens [13] = species on record: Homo sapiens; experiment: Induction of cell cycle arrest in human ALL5 cells assessed as increase in 4 N DNA at 5 times of antiproliferative IC50 incubated for 24 hrs by propidium iodide based flow cytometry; type: functional
[14] = Cell cycle arrest in human ALL5 cells assessed as accumulation in S phase at 5 times of antiproliferative IC50 incubated for 72 hrs by propidium iodide based flow cytometry (reference value: 13.5 %); type: functional
BALB/3T3 = experiment: Antiproliferative activity against mouse BALB/3T3 cells assessed as reduction in cell viability incubated for 120 hrs by MTT assay; type: cell-based; details: BALB/3T3, 120 h
MCF7 [15] = experiment: Cell cycle arrest in human MCF7 cells assessed as accumulation in subG1 phase at 5 times of antiproliferative IC50 incubated for 72 hrs by propidium iodide based flow cytometry (reference value: 3.59 %); type: functional
[16] = Cell cycle arrest in human ALL5 cells assessed as accumulation in S phase at 5 times of antiproliferative IC50 incubated for 48 hrs by propidium iodide based flow cytometry (reference value: 10.3 %); type: functional
[17] = Cell cycle arrest in human ALL5 cells assessed as accumulation in G2 phase at 5 times of antiproliferative IC50 incubated for 48 hrs by propidium iodide based flow cytometry (reference value: 11.2 %); type: functional
MCF7 [18] = experiment: Cell cycle arrest in human MCF7 cells assessed as accumulation in G2 phase at 5 times of antiproliferative IC50 incubated for 72 hrs by propidium iodide based flow cytometry (reference value: 18.6 %); type: functional
MCF7 [19] = experiment: Cell cycle arrest in human MCF7 cells assessed as accumulation in G1 phase at 5 times of antiproliferative IC50 incubated for 72 hrs by propidium iodide based flow cytometry (reference value: 58 %); type: functional
[20] = Selectivity index, ratio of IC50 of mouse BALB/3T3 cells to IC50 of human A549 cells
MCF7 [21] = experiment: Cell cycle arrest in human MCF7 cells assessed as accumulation in G1 phase at 5 times of antiproliferative IC50 incubated for 48 hrs by propidium iodide based flow cytometry (reference value: 40.8 %); type: functional
[22] = Antiproliferative activity against human LoVo/DX cells assessed as reduction in cell viability incubated for 120 hrs by MTT assay; type: functional, cell-based
LoVo = experiment: Antiproliferative activity against human LoVo cells assessed as reduction in cell viability incubated for 120 hrs by MTT assay; type: functional, cell-based
MCF7 [23] = experiment: Cell cycle arrest in human MCF7 cells assessed as accumulation in subG1 phase at 5 times of antiproliferative IC50 incubated for 48 hrs by propidium iodide based flow cytometry (reference value: 9.19 %); type: functional
MCF7 [24] = experiment: Cell cycle arrest in human MCF7 cells assessed as accumulation in S phase at 5 times of antiproliferative IC50 incubated for 48 hrs by propidium iodide based flow cytometry (reference value: 34 %); type: functional
[25] = Cell cycle arrest in human ALL5 cells assessed as accumulation in subG1 phase at 5 times of antiproliferative IC50 incubated for 72 hrs by propidium iodide based flow cytometry (reference value: 15.5 %); type: functional
MCF7 [26] = experiment: Cell cycle arrest in human MCF7 cells assessed as accumulation in S phase at 5 times of antiproliferative IC50 incubated for 24 hrs by propidium iodide based flow cytometry (reference value: 19.9 %); type: functional
Homo sapiens [27] = species on record: Homo sapiens; experiment: Induction of apoptosis in human ALL5 cells assessed as increase in 85 kDa PARP expression at 26.5 uM incubated for 24 and 48 hrs by immunoblot analysis; type: functional, cell-based
[28] = Cell cycle arrest in human ALL5 cells assessed as accumulation in G1 phase at 5 times of antiproliferative IC50 incubated for 72 hrs by propidium iodide based flow cytometry (reference value: 59.7 %); type: functional
[29] = Resistance index, ratio of IC50 of human LoVo/DX cells to IC50 of human LoVo cells; type: functional
MCF7 [30] = experiment: Cell cycle arrest in human MCF7 cells assessed as accumulation in S phase at 5 times of antiproliferative IC50 incubated for 72 hrs by propidium iodide based flow cytometry (reference value: 19.8 %); type: functional
[31] = Cell cycle arrest in human ALL5 cells assessed as accumulation in G1 phase at 5 times of antiproliferative IC50 incubated for 48 hrs by propidium iodide based flow cytometry (reference value: 67.4 %); type: functional
[32] = Selectivity index, ratio of IC50 of mouse BALB/3T3 cells to IC50 of human MCF7 cells; type: toxicity; details: BALB/3T3 cells versus MCF7 cells, read-out: Ratio IC50
[33] = Cell cycle arrest in human ALL5 cells assessed as accumulation in subG1 phase at 5 times of antiproliferative IC50 incubated for 48 hrs by propidium iodide based flow cytometry (reference value: 11 %); type: functional
MCF7 [34] = experiment: Cell cycle arrest in human MCF7 cells assessed as accumulation in subG1 phase at 5 times of antiproliferative IC50 incubated for 24 hrs by propidium iodide based flow cytometry (reference value: 7.79 %); type: functional
MCF7 [35] = experiment: Cell cycle arrest in human MCF7 cells assessed as accumulation in G2 phase at 5 times of antiproliferative IC50 incubated for 24 hrs by propidium iodide based flow cytometry (reference value: 22.4 %); type: functional
MCF7 [36] = experiment: Antiproliferative activity against human MCF7 cells assessed as reduction in cell viability incubated for 120 hrs by MTT assay; type: functional, cell-based; details: MCF7, 120 h
Homo sapiens [37] = species on record: Homo sapiens; experiment: Induction of cell death in human ALL5 cells assessed as decrease in 4 N DNA at 5 times of antiproliferative IC50 incubated for 72 hrs by propidium iodide based flow cytometry; type: functional
[38] = Cell cycle arrest in human ALL5 cells assessed as accumulation in G2 phase at 5 times of antiproliferative IC50 incubated for 72 hrs by propidium iodide based flow cytometry (reference value: 11.3 %); type: functional
Homo sapiens [39] = species on record: Homo sapiens; experiment: Induction of apoptosis in human ALL5 cells assessed as increase in 85 kDa PARP expression at 0.2 uM incubated for 24 and 48 hrs by immunoblot analysis; type: functional, cell-based
Homo sapiens [40] = species on record: Homo sapiens; experiment: Induction of apoptosis in human ALL5 cells assessed as reduction in 116 kDa PARP expression at 0.2 uM incubated for 24 and 48 hrs by immunoblot analysis; type: functional, cell-based

`COCC(=O)N[C@H]1CCc2c(Br)c(OC)c(OC)c(OC)c2-c2ccc(SC)c(=O)cc21` showed an Activity [1] of 14.1%, an IC50 [2] of 5.3 nM and an Activity [3] of 52.3%. The Activity (MCF7 [4]) was 9.68%, the selectivity ratio [5] was 0.2 and the “Ratio IC50” value [6] was 2.2. For the same molecule, the Activity [7] was 17.1%, the selectivity ratio [8] was 1.5 and the Activity (MCF7 [9]) was 54.3%. The Activity (Homo sapiens [10]) was “Active”, the Activity [11] was 16.5% and the Activity (Homo sapiens [12]) was “Active”. The IC50 (A549) was 10.2 nM, the Activity (Homo sapiens [13]) was “Active” and the Activity [14] was 25%. For the same molecule, the IC50 (BALB/3T3) was 11.4 nM, the Activity (MCF7 [15]) was 15.1% and the Activity [16] was 15.3%. For the same molecule, the Activity [17] was 20.6%, the Activity (MCF7 [18]) was 65% and the Activity (MCF7 [19]) was 11.9%. The “Ratio IC50” value [20] was 1.1, the Activity (MCF7 [21]) was 11.9% and the IC50 [22] was 71.2 nM. The IC50 (LoVo) was 7.6 nM, the Activity (MCF7 [23]) was 13.5% and the Activity (MCF7 [24]) was 20.3%. For the same molecule, the Activity [25] was 36.8%, the Activity (MCF7 [26]) was 9.28% and the Activity (Homo sapiens [27]) was “Active”. For the same molecule, the Activity [28] was 29.3%, the “Ratio IC50” value [29] was 9.3 and the Activity (MCF7 [30]) was 7.98%. For the same molecule, the Activity [31] was 35%, the selectivity ratio [32] was 1 and the Activity [33] was 29.1%. The Activity (MCF7 [34]) was 6.3%, the Activity (MCF7 [35]) was 74.7% and the IC50 (MCF7 [36]) was 11.4 nM. For the same molecule, the Activity (Homo sapiens [37]) was “Active” and the Activity [38] was 8.92%.
In the case of `COc1cccc2c1C(=O)c1c(O)c3c(c(O)c1C2=O)C[C@@](O)(C(=O)CO)C[C@@H]3O[C@H]1C[C@H](N)[C@H](O)[C@H](C)O1` [DOXORUBICIN], the Activity [1] is reported as 7.16%, the Activity (Homo sapiens [39]) is reported as “Active” and the IC50 [2] is reported as 39.1 nM. For the same molecule, the Activity [3] was 66.3%, the Activity (MCF7 [4]) was 47.3% and the Activity (Homo sapiens [40]) was “Active”. It also gave an Activity [7] of 1.55%, an Activity (MCF7 [9]) of 32.4% and an Activity [11] of 22%. It also gave an IC50 (A549) of 258 nM, an Activity [14] of 16.9% and an IC50 (BALB/3T3) of 166 nM. The Activity (MCF7 [15]) was 18.3%, the Activity [16] was 2.77% and the Activity [17] was 5.52%. The Activity (MCF7 [18]) was 32.5%, the Activity (MCF7 [19]) was 35.1% and the Activity (MCF7 [21]) was 43.3%. The Activity (MCF7 [23]) was 6.08%, the Activity (MCF7 [24]) was 18.3% and the Activity [25] was 36.6%. It also gave an Activity (MCF7 [26]) of 16.9%, an Activity [28] of 36.5% and an Activity (MCF7 [30]) of 14.1%. It also gave an Activity [31] of 67.6%, an Activity [33] of 21% and an Activity (MCF7 [34]) of 5.28%. The Activity (MCF7 [35]) was 30.5% and the Activity [38] was 9.99%.
